Laboratory results from patent EP3807270B1, “NOVEL HETEROARYL HETEROCYCLYL COMPOUNDS FOR THE TREATMENT OF AUTOIMMUNE DISEASE” (F. Hoffmann-La Roche AG, priority 2018, dated 2019).

Experiments:
[1] = biological target: T1, hTLR9 (Homo sapiens, UniProt Q9NR96); test: HEK293-Blue-hTLR-9 cells assay (SEAP reporter, ODN2006 stimulation); assay type: cell-based; parameters: host or cells: HEK293 (HEK-Blue); conditions: HEK293-Blue-hTLR9 cells, ODN2006, 20 hrs; read-out: HEK/hTLR9 IC50
T1 sequence (Q9NR96 26-1032): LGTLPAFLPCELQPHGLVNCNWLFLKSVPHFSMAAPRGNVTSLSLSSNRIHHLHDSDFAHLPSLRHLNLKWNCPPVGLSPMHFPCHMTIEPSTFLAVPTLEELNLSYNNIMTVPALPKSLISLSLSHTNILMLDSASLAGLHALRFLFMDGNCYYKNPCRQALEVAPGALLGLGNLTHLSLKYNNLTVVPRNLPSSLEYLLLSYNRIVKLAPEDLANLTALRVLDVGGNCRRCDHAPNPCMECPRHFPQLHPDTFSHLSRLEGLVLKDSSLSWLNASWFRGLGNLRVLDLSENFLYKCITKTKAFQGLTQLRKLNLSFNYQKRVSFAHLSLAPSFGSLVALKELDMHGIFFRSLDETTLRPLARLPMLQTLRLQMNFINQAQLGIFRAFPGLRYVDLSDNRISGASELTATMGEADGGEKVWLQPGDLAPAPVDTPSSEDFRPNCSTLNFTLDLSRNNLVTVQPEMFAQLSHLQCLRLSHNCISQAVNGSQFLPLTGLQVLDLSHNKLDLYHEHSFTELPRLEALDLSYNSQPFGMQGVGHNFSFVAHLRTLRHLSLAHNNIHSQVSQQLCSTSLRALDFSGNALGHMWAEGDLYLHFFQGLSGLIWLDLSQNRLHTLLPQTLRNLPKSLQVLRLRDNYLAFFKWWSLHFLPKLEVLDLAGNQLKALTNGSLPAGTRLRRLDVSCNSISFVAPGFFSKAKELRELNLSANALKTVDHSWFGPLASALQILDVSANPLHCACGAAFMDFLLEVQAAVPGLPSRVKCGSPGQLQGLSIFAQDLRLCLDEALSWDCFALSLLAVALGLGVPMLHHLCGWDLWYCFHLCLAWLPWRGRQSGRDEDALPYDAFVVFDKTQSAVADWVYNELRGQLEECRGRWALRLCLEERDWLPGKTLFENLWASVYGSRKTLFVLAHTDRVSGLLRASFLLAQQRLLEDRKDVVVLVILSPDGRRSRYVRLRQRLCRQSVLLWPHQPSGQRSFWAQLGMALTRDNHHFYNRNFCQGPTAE
How it was run: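 HEK293-Blue-hTLR9 cells (250,000-450,000 cells/mL) in DMEM with 10% FBS were treated with serially diluted compound (1% DMSO final) plus ODN2006 for 20 hrs at 37 °C. Supernatant SEAP activity was measured with QUANTI-Blue substrate for 2 hrs at 37 °C, reading absorbance at 620-655 nm.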

[2] = biological target: T2, CYP2D6 (Homo sapiens, UniProt P10635); test: CYP inhibition assay in human liver microsome; assay type: in vitro ADME; conditions: human liver microsomes, probe dextromethorphan, 10µM test compound, dextromethorphan substrate, <0: not or weak inhibitor, read-out: CYP 2D6 inhibition %@10µM
T2 construct: tissue BD-Gentest 452117; host or cells: human liver microsomes
T2 sequence (P10635 whole entry): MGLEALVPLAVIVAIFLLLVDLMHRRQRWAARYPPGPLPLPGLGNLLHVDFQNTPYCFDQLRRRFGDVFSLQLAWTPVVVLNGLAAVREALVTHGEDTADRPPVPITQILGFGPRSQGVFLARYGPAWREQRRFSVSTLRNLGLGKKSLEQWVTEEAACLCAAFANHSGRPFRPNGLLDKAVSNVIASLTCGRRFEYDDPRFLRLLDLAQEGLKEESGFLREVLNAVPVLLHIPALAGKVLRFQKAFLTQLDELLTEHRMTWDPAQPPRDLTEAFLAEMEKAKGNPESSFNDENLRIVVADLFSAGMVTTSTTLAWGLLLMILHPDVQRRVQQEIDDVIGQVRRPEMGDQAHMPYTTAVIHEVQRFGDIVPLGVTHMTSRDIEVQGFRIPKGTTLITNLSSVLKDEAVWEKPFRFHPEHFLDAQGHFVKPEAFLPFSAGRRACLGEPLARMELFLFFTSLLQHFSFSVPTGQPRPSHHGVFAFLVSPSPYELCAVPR
How it was run: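 HLM mixed with CYP2D6 substrate, preincubated 10 min at 37 °C, started with NADPH regenerating system and run 10 min at 37 °C before acetonitrile quench. Metabolite measured by RapidFire MS/MS against D3-dextrorphan internal standard. % inhibition scaled between DMSO and concentrated-inhibitor controls.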

SMILES | IC50 [1] [nM] | inhibition at 10 min, 10 µM [2] [%]
C[C@@H]1CN(c2ccc(C#N)c3ncccc23)C[C@H](CN2CCC(Nc3ncc4c(n3)CNC4)C2)O1 (stereo partly drawn) [Example 32, 5-[(2S,6R)-2-[[3-(6,7-dihydro-5H-pyrrolo[3,4-d]pyrimidin-2-ylamino)pyrrolidin-1-yl]methyl]-6-methyl-morpholin-4-yl]quinoline-8-carbonitrile] | 99 | 17.5
C[C@@H]1CN(c2ccc(C#N)c3ncccc23)C[C@H](CN2CCCN(c3nc4c(s3)CNCC4)CC2)O1 [Example 33, 5-[(2R,6S)-2-methyl-6-[[4-(4,5,6,7-tetrahydrothiazolo[5,4-c]pyridin-2-yl)-1,4-diazepan-1-yl]methyl]morpholin-4-yl]quinoline-8-carbonitrile] | 90 | -10.5
C[C@@H]1CN(c2ccc(C#N)c3ncccc23)C[C@H](CN2CCN(c3ccc4c(n3)CCN(C)C4)CC2)O1 [Example 34, 5-[(2R,6S)-2-methyl-6-[[4-(6-methyl-7,8-dihydro-5H-1,6-naphthyridin-2-yl)piperazin-1-yl]methyl]morpholin-4-yl]quinoline-8-carbonitrile] | 86 | 4
C[C@@H]1CN(c2ccc(C#N)c3ncccc23)C[C@H](CN2CC3(CCN3c3ccc4c(n3)CCNC4)C2)O1 [Example 36, 5-[(2R,6S)-2-methyl-6-[[1-(5,6,7,8-tetrahydro-1,6-naphthyridin-2-yl)-1,6-diazaspiro[3.3]heptan-6-yl]methyl]morpholin-4-yl]quinoline-8-carbonitrile] | 45 | 13.5
C[C@@H]1CN(c2ccc(C#N)c3ncccc23)C[C@H](CN2CCCN(c3ncc4c(n3)CCNC4)CC2)O1 [Example 39, 5-[(2R,6S)-2-methyl-6-[[4-(5,6,7,8-tetrahydropyrido[4,3-d]pyrimidin-2-yl)-1,4-diazepan-1-yl]methyl]morpholin-4-yl]quinoline-8-carbonitrile] | 90 | 8.5
C[C@@H]1CN(c2ccc(C#N)c3ncccc23)C[C@H](CN2CCN(c3cnc4c(n3)CNCC4)CC2)O1 [Example 40, 5-[(2R,6S)-2-methyl-6-[[4-(5,6,7,8-tetrahydropyrido[3,4-b]pyrazin-3-yl)piperazin-1-yl]methyl]morpholin-4-yl]quinoline-8-carbonitrile] | 123 | 8
CC1NCc2ncc(N3CCN(C[C@H]4CN(c5ccc(C#N)c6ncccc56)C[C@@H](C)O4)CC3)cc21 (stereo partly drawn) [Example 41, 5-[(2R,6S)-2-methyl-6-[[4-(5-methyl-6,7-dihydro-5H-pyrrolo[3,4-b]pyridin-3-yl)piperazin-1-yl]methyl]morpholin-4-yl]quinoline-8-carbonitrile] | 60 | -2
C[C@@H]1CN(c2ccc(C#N)c3ncccc23)C[C@H](CN2CC3(C2)CN(c2ccc4c(c2)CCNC4)CCO3)O1 [Example 44, 5-[(2R,6S)-2-methyl-6-[[8-(1,2,3,4-tetrahydroisoquinolin-6-yl)-5-oxa-2,8-diazaspiro[3.5]nonan-2-yl]methyl]morpholin-4-yl]quinoline-8-carbonitrile] | 85 | 4
C[C@@H]1CN(c2ccc(C#N)c3ncccc23)C[C@H](CN2CC3(C2)CN(c2ccc4c(n2)CNCC4)CCO3)O1 [Example 45, 5-[(2R,6S)-2-methyl-6-[[8-(5,6,7,8-tetrahydro-1,7-naphthyridin-2-yl)-5-oxa-2,8-diazaspiro[3.5]nonan-2-yl]methyl]morpholin-4-yl]quinoline-8-carbonitrile] | 113 | 9
C[C@@H]1CN(c2ccc(C#N)c3ncccc23)C[C@H](CN2CC3(C2)CN(c2cnc4c(c2)CCNC4)CCO3)O1 [Example 46, 5-[(2R,6S)-2-methyl-6-[[8-(5,6,7,8-tetrahydro-1,7-naphthyridin-3-yl)-5-oxa-2,8-diazaspiro[3.5]nonan-2-yl]methyl]morpholin-4-yl]quinoline-8-carbonitrile] | 114 | 12
C[C@@H]1CN(c2ccc(C#N)c3ncccc23)C[C@H](CN2CC3(C2)CN(c2cnc4c(c2)CNCC4)CCO3)O1 [Example 47, 5-[(2R,6S)-2-methyl-6-[[8-(5,6,7,8-tetrahydro-1,6-naphthyridin-3-yl)-5-oxa-2,8-diazaspiro[3.5]nonan-2-yl]methyl]morpholin-4-yl]quinoline-8-carbonitrile] | 72 | -21.5
C[C@@H]1CN(c2ccc(C#N)c3ncccc23)C[C@H](CN2CC3(C2)CN(c2cc4c(cn2)CCNC4)CCO3)O1 [Example 48, 5-[(2R,6S)-2-methyl-6-[[8-(5,6,7,8-tetrahydro-2,6-naphthyridin-3-yl)-5-oxa-2,8-diazaspiro[3.5]nonan-2-yl]methyl]morpholin-4-yl]quinoline-8-carbonitrile] | 56 | -12
C[C@@H]1CN(c2ccc(C#N)c3ncccc23)C[C@H](CN2CC3(C2)CN(c2ccc4c(n2)CCNC4)CCO3)O1 [Example 49, 5-[(2R,6S)-2-methyl-6-[[8-(5,6,7,8-tetrahydro-1,6-naphthyridin-2-yl)-5-oxa-2,8-diazaspiro[3.5]nonan-2-yl]methyl]morpholin-4-yl]quinoline-8-carbonitrile] | 48 | 22
C[C@@H]1CN(c2ccc(C#N)c3ncccc23)C[C@H](CN2CC3(C2)CN(c2cnc4c(n2)CCNC4)CCO3)O1 [Example 50, 5-[(2R,6S)-2-methyl-6-[[8-(5,6,7,8-tetrahydropyrido[3,4-b]pyrazin-2-yl)-5-oxa-2,8-diazaspiro [3.5]nonan-2-yl]methyl]morpholin-4-yl] quinoline-8-carbonitrile] | 69 | 10.5
C[C@@H]1CN(c2ccc(C#N)c3ncccc23)C[C@H](CN2C[C@@H]3[C@@H](C2)OCCN3c2cnc3c(c2)CCNC3)O1 [Example 52, 5-[(2S,6R)-2-[[(4aR,7aR)-4-(5,6,7,8-tetrahydro-1,7-naphthyridin-3-yl)-2,3,4a,5,7,7a-hexahydropyrrolo[3,4-b][1,4]oxazin-6-yl]methyl]-6-methylmorpholin-4-yl]quinoline-8-carbonitrile] | 44 | 5
C[C@@H]1CN(c2ccc(C#N)c3ncccc23)C[C@H](CN2CCN(c3cnc4c(c3)CNCC4)C(C)(C)C2)O1 [Example 56, 5-[(2S,6R)-2-[[3,3-dimethyl-4-(5,6,7,8-tetrahydro-1,6-naphthyridin-3-yl)piperazin-1-yl]methyl]-6-methyl-morpholin-4-yl]quinoline-8-carbonitrile] | 168 | -2.5
C[C@@H]1CN(c2ccc(C#N)c3ncccc23)C[C@H](CN2CCC(Nc3ncc4c(n3)CCNC4)C2)O1 (stereo partly drawn) [Example 57, 5-[(2R,6S)-2-methyl-6-[[3-(5,6,7,8-tetrahydropyrido [4,3-d]pyrimidin-2-ylamino)pyrrolidin-1-yl]methyl]morpholin-4-yl] quinoline-8-carbonitrile] | 36 | -8
COC1CNCc2ccc(N3CCN(C[C@H]4CN(c5ccc(C#N)c6ncccc56)C[C@@H](C)O4)CC3)cc21 (stereo partly drawn) [Example 58, 5-[(2S,6R)-2-[[4-(4-methoxy-1,2,3,4-tetrahydroisoquinolin-6-yl)piperazin-1-yl]methyl]-6-methyl-morpholin-4-yl]quinoline-8-carbonitrile] | 92 | 13
